Source: ChEMBL document CHEMBL4414672, “Synthesis of certain benzothieno[3,2-d]pyrimidine derivatives as a selective SIRT2 inhibitors” (Eur J Med Chem, 2020)

Tests used:
Type in all cases: functional
CCRF-CEM = experiment: Growth inhibition of human CCRF-CEM cells at 10^-5 M incubated for 48 hrs by sulforhodamine B assay; conditions: read-out: GI
NCI-H460 = experiment: Growth inhibition of human NCI-H460 cells at 10^-5 M incubated for 48 hrs by sulforhodamine B assay; conditions: NCI-H460, 48 h, read-out: GI
MCF7 = experiment: Growth inhibition of human MCF7 cells at 10^-5 M incubated for 48 hrs by sulforhodamine B assay; conditions: MCF7, 48 h, read-out: GI
OVCAR-5 = experiment: Growth inhibition of human OVCAR5 cells at 10^-5 M incubated for 48 hrs by sulforhodamine B assay; conditions: OVCAR-5, 48 h, read-out: GI
SK-MEL-5 = experiment: Growth inhibition of human SK-MEL-5 cells at 10^-5 M incubated for 48 hrs by sulforhodamine B assay; conditions: SK-MEL-5, 48 h, read-out: GI
MDA-MB-468 = experiment: Growth inhibition of human MDA-MB-468 cells at 10^-5 M incubated for 48 hrs by sulforhodamine B assay; conditions: MDA-MB-468, 48 h, read-out: GI
SK-MEL-28 = experiment: Growth inhibition of human SK-MEL-28 cells at 10^-5 M incubated for 48 hrs by sulforhodamine B assay; conditions: SK-MEL-28, 48 h, read-out: GI
MDA-MB-435 = experiment: Growth inhibition of human MDA-MB-435 cells at 10^-5 M incubated for 48 hrs by sulforhodamine B assay; conditions: MDA-MB-435, 48 h, read-out: GI
HL-60(TB) = experiment: Growth inhibition of human HL-60(TB) cells at 10^-5 M incubated for 48 hrs by sulforhodamine B assay; conditions: HL-60, 48 h, read-out: GI
NCI-H522 = experiment: Growth inhibition of human NCI-H522 cells at 10^-5 M incubated for 48 hrs by sulforhodamine B assay; conditions: NCI-H522, 48 h, read-out: GI
A549 = experiment: Growth inhibition of human A549/ATCC cells at 10^-5 M incubated for 48 hrs by sulforhodamine B assay; conditions: A549, 48 h, read-out: GI
COLO 205 = experiment: Growth inhibition of human COLO205 cells at 10^-5 M incubated for 48 hrs by sulforhodamine B assay; conditions: COLO 205, 48 h, read-out: GI
NCI-H226 = experiment: Growth inhibition of human NCI-H226 cells at 10^-5 M incubated for 48 hrs by sulforhodamine B assay; conditions: NCI-H226, 48 h, read-out: GI
DU-145 = experiment: Growth inhibition of human DU145 cells at 10^-5 M incubated for 48 hrs by sulforhodamine B assay; conditions: DU-145, 48 h, read-out: GI
KM12 = experiment: Growth inhibition of human KM12 cells at 10^-5 M incubated for 48 hrs by sulforhodamine B assay; conditions: KM12, 48 h, read-out: GI
BT-549 = experiment: Growth inhibition of human BT549 cells at 10^-5 M incubated for 48 hrs by sulforhodamine B assay; conditions: BT-549, 48 h, read-out: GI
HCC 2998 = experiment: Growth inhibition of human HCC2998 cells at 10^-5 M incubated for 48 hrs by sulforhodamine B assay; conditions: HCC 2998, 48 h, read-out: GI
HOP-62 = experiment: Growth inhibition of human HOP62 cells at 10^-5 M incubated for 48 hrs by sulforhodamine B assay; conditions: HOP-62, 48 h, read-out: GI
MOLT-4 = experiment: Growth inhibition of human MOLT4 cells at 10^-5 M incubated for 48 hrs by sulforhodamine B assay; conditions: MOLT-4, 48 h, read-out: GI
ACHN = experiment: Growth inhibition of human ACHN cells at 10^-5 M incubated for 48 hrs by sulforhodamine B assay; conditions: read-out: GI
SW-620 = experiment: Growth inhibition of human SW620 cells at 10^-5 M incubated for 48 hrs by sulforhodamine B assay; conditions: SW-620, 48 h, read-out: GI
SNB-75 = experiment: Growth inhibition of human SNB75 cells at 10^-5 M incubated for 48 hrs by sulforhodamine B assay; conditions: SNB-75, 48 h, read-out: GI
SF-295 = experiment: Growth inhibition of human SF295 cells at 10^-5 M incubated for 48 hrs by sulforhodamine B assay; conditions: SF-295, 48 h, read-out: GI
HCT-116 = experiment: Growth inhibition of human HCT116 cells at 10^-5 M incubated for 48 hrs by sulforhodamine B assay; conditions: HCT-116, 48 h, read-out: GI
HT-29 = experiment: Growth inhibition of human HT-29 cells at 10^-5 M incubated for 48 hrs by sulforhodamine B assay; conditions: HT-29, 48 h, read-out: GI
SF-268 = experiment: Growth inhibition of human SF268 cells at 10^-5 M incubated for 48 hrs by sulforhodamine B assay; conditions: SF-268, 48 h, read-out: GI
UACC-257 = experiment: Growth inhibition of human UACC257 cells at 10^-5 M incubated for 48 hrs by sulforhodamine B assay; conditions: UACC-257, 48 h, read-out: GI
UO-31 = experiment: Growth inhibition of human UO31 cells at 10^-5 M incubated for 48 hrs by sulforhodamine B assay; conditions: UO-31, 48 h, read-out: GI
LOX IMVI = experiment: Growth inhibition of human LOXIMVI cells at 10^-5 M incubated for 48 hrs by sulforhodamine B assay; conditions: read-out: GI
HCT-15 = experiment: Growth inhibition of human HCT15 cells at 10^-5 M incubated for 48 hrs by sulforhodamine B assay; conditions: HCT-15, 48 h, read-out: GI
IGROV-1 = experiment: Growth inhibition of human IGROV1 cells at 10^-5 M incubated for 48 hrs by sulforhodamine B assay; conditions: IGROV-1, 48 h, read-out: GI
Hs-578T = experiment: Growth inhibition of human Hs 578T cells at 10^-5 M incubated for 48 hrs by sulforhodamine B assay; conditions: read-out: GI
NCI/ADR-RES = experiment: Growth inhibition of human NCI/ADR-RES cells at 10^-5 M incubated for 48 hrs by sulforhodamine B assay; conditions: read-out: GI
EKVX = experiment: Growth inhibition of human EKVX cells at 10^-5 M incubated for 48 hrs by sulforhodamine B assay; conditions: read-out: GI
OVCAR-4 = experiment: Growth inhibition of human OVCAR4 cells at 10^-5 M incubated for 48 hrs by sulforhodamine B assay; conditions: OVCAR-4, 48 h, read-out: GI
786-0 = experiment: Growth inhibition of human 786-0 cells at 10^-5 M incubated for 48 hrs by sulforhodamine B assay; conditions: 786-0, 48 h, read-out: GI
U-251 = experiment: Growth inhibition of human U251 cells at 10^-5 M incubated for 48 hrs by sulforhodamine B assay; conditions: U-251, 48 h, read-out: GI
CAKI-1 = experiment: Growth inhibition of human Caki1 cells at 10^-5 M incubated for 48 hrs by sulforhodamine B assay; conditions: CAKI-1, 48 h, read-out: GI

Work on `N=C1Nc2c(sc3ccc(Cl)cc23)C(c2cccc(Br)c2)N1` (stereo unspecified) yielded an inhibition of growth at 10 µM (CCRF-CEM) of -20.7%, an inhibition of growth at 10 µM (NCI-H460) of 1.37% and an inhibition of growth at 10 µM (MCF7) of 25.6%. For the same compound, the inhibition of growth at 10 µM (OVCAR-5) was -3.33%, the inhibition of growth at 10 µM (SK-MEL-5) was 3.53% and the inhibition of growth at 10 µM (MDA-MB-468) was 13.6%. For the same compound, the inhibition of growth at 10 µM (SK-MEL-28) was -17.9%, the inhibition of growth at 10 µM (MDA-MB-435) was 1.88% and the inhibition of growth at 10 µM (HL-60(TB)) was -2.27%. It also gave an inhibition of growth at 10 µM (NCI-H522) of 12.2%, an inhibition of growth at 10 µM (A549) of 1.98% and an inhibition of growth at 10 µM (COLO 205) of -0.42%. The inhibition of growth at 10 µM (NCI-H226) was 21.6%, the inhibition of growth at 10 µM (DU-145) was -10.7% and the inhibition of growth at 10 µM (KM12) was 6.3%. It also gave an inhibition of growth at 10 µM (BT-549) of -21.8%, an inhibition of growth at 10 µM (HCC 2998) of -13.8% and an inhibition of growth at 10 µM (HOP-62) of 8.49%. For the same compound, the inhibition of growth at 10 µM (MOLT-4) was 7.81%, the inhibition of growth at 10 µM (ACHN) was 7.06% and the inhibition of growth at 10 µM (SW-620) was -3.61%. The inhibition of growth at 10 µM (SNB-75) was 14.4%, the inhibition of growth at 10 µM (SF-295) was -3.08% and the inhibition of growth at 10 µM (HCT-116) was 3.22%. It also gave an inhibition of growth at 10 µM (HT-29) of -3.97%, an inhibition of growth at 10 µM (SF-268) of 6.03% and an inhibition of growth at 10 µM (UACC-257) of 1.22%. It also gave an inhibition of growth at 10 µM (UO-31) of 38.3%, an inhibition of growth at 10 µM (LOX IMVI) of 1.33% and an inhibition of growth at 10 µM (HCT-15) of -3.08%. It also gave an inhibition of growth at 10 µM (IGROV-1) of 13%, an inhibition of growth at 10 µM (Hs-578T) of -4.14% and an inhibition of growth at 10 µM (NCI/ADR-RES) of 2.51%. It also gave an inhibition of growth at 10 µM (EKVX) of 14.5%, an inhibition of growth at 10 µM (OVCAR-4) of 6.46% and an inhibition of growth at 10 µM (786-0) of 5.21%. The inhibition of growth at 10 µM (U-251) was -3.32% and the inhibition of growth at 10 µM (CAKI-1) was 20.5%.

With `O=C1CC(=O)N(C2=Nc3c(sc4ccc(Cl)cc34)C(c3cccc([N+](=O)[O-])c3)N2)N1` (stereo unspecified) the inhibition of growth at 10 µM (CCRF-CEM) was -32.1%, the inhibition of growth at 10 µM (NCI-H460) was 2.81% and the inhibition of growth at 10 µM (MCF7) was 21.7%. It also gave an inhibition of growth at 10 µM (OVCAR-5) of -2.6%, an inhibition of growth at 10 µM (SK-MEL-5) of 5.38% and an inhibition of growth at 10 µM (MDA-MB-468) of -2.44%. It also gave an inhibition of growth at 10 µM (SK-MEL-28) of -19.8%, an inhibition of growth at 10 µM (MDA-MB-435) of -10.2% and an inhibition of growth at 10 µM (HL-60(TB)) of -8%. The inhibition of growth at 10 µM (NCI-H522) was 9.63%, the inhibition of growth at 10 µM (A549) was -4.87% and the inhibition of growth at 10 µM (COLO 205) was -8.39%. It also gave an inhibition of growth at 10 µM (NCI-H226) of 19.4%, an inhibition of growth at 10 µM (DU-145) of -15.1% and an inhibition of growth at 10 µM (KM12) of -3.57%. The inhibition of growth at 10 µM (BT-549) was -19.4%, the inhibition of growth at 10 µM (HCC 2998) was -8.39% and the inhibition of growth at 10 µM (HOP-62) was 9.64%. It also gave an inhibition of growth at 10 µM (MOLT-4) of -4.64%, an inhibition of growth at 10 µM (ACHN) of -11.9% and an inhibition of growth at 10 µM (SW-620) of -6.45%. For the same compound, the inhibition of growth at 10 µM (SNB-75) was 8.27%, the inhibition of growth at 10 µM (SF-295) was 0.3% and the inhibition of growth at 10 µM (HCT-116) was 0.7%. It also gave an inhibition of growth at 10 µM (HT-29) of -6.83%, an inhibition of growth at 10 µM (SF-268) of -5.71% and an inhibition of growth at 10 µM (UACC-257) of -8.39%. For the same compound, the inhibition of growth at 10 µM (UO-31) was 38%, the inhibition of growth at 10 µM (LOX IMVI) was 2.94% and the inhibition of growth at 10 µM (HCT-15) was -3.4%. The inhibition of growth at 10 µM (IGROV-1) was 20.8%, the inhibition of growth at 10 µM (Hs-578T) was 5.51% and the inhibition of growth at 10 µM (NCI/ADR-RES) was -2.89%. For the same compound, the inhibition of growth at 10 µM (EKVX) was 21.9%, the inhibition of growth at 10 µM (OVCAR-4) was -11.5% and the inhibition of growth at 10 µM (786-0) was -4.83%. It also gave an inhibition of growth at 10 µM (U-251) of -10.9% and an inhibition of growth at 10 µM (CAKI-1) of 10.9%.
